Experimental data taken from ChEMBL document CHEMBL1130358, “DIARYLETHER INHIBITORS OF FARNESYL-PROTEIN TRANSFERASE” (Bioorg Med Chem Lett, 1997).
pIC50: −log10 of the molar value.

Legend:
[1] = biological target: Protein farnesyltransferase (Bos taurus, UniProt P29702+P49355); experiment: Inhibition of the Farnesyltransferase catalyzed incorporation of [3H]FPP into recombinant Ha-Ras by 50% in bovine brain at a concentration of ca. 1 nM.; type: tissue-based
Rat1 [2] = experiment: 90% reduction in v-raf (Raf1a1) transformed RAT1 cell colony size and number in soft agar assay; type: functional; details: Rattus norvegicus
[3] = biological target: Geranylgeranyl transferase type I (Bos taurus, UniProt P29702+Q5EAD5); experiment: Inhibition of Geranylgeranyl transferase type I, an enzyme that recognizes CaaX sequences containing leucine as the terminal residue.; type: protein-complex assay
Rat1 [4] = experiment: 90% reduction in v-Ha-ras (Ras2B) transformed RAT1 cell colony size and number in soft agar assay; type: functional; details: Rattus norvegicus

Row | SMILES | pIC50 [1] | IC90 (Rat1 [2]) [µM] | pIC50 [3] | IC90 (Rat1 [4]) [µM]
1 | N[C@@H](CS)CNc1ccc(Oc2ccccc2)cc1 | 6.34 | 10 | 5.30 | 10
2 | Cc1cccc(Oc2ccc(NC[C@@H](N)CS)cc2)c1 | 6.21 | 10 |  | 10
3 | N[C@@H](CS)CNc1cccc(Oc2ccccc2)c1 | 5.64 |  |  | 
4 | Cc1cccc(Oc2cccc(NC[C@@H](N)CS)c2)c1 | 6.48 |  |  | 
5 | N[C@@H](CS)CNc1cccc(Oc2cccc(C(=O)O)c2)c1 | 6.60 | > 50 | 5.24 | > 50
6 | N[C@@H](CS)CNc1cccc(Oc2ccc(C(=O)O)cc2)c1 | 5.42 |  |  | 
7 | N[C@@H](CS)CNc1ccc(Oc2ccc(C(=O)O)cc2)cc1 | 5.50 |  |  | 
8 | N[C@@H](CS)CNc1ccc(Oc2cccc(C(=O)O)c2)cc1 | 6.39 | > 50 |  | > 50
9 | N[C@@H](CS)C(=O)Nc1cccc(Oc2cccc(C(=O)O)c2)c1 | 5.16 |  |  | 
10 | N[C@@H](CS)CNc1ccc(Oc2cccc(CO)c2)cc1 | 6.47 | 30 |  | ~30

Continued, values first:

Row | pIC50 [1] | IC90 (Rat1 [2]) [µM] | pIC50 [3] | IC90 (Rat1 [4]) [µM] | SMILES
11 | < 4.00 |  |  |  | COC(=O)c1ccc(Oc2ccc(NC(=O)[C@@H](N)CS)cc2)cc1
12 | 6.19 | 10 | 5.64 | 10 | COC(=O)c1cccc(Oc2ccc(NC[C@@H](N)CS)cc2)c1
13 | < 4.00 |  |  |  | N[C@@H](CS)C(=O)Nc1cccc(Oc2ccc(C(=O)O)cc2)c1
14 | 4.35 |  |  |  | COC(=O)c1cccc(Oc2ccc(NC(=O)[C@@H](N)CS)cc2)c1
15 | 4.80 |  |  |  | N[C@@H](CS)C(=O)Nc1ccc(Oc2cccc(C(=O)O)c2)cc1
16 | 4.41 |  |  |  | N[C@@H](CS)C(=O)Nc1ccc(Oc2ccc(C(=O)O)cc2)cc1
17 | 4.35 |  |  |  | COC(=O)c1cccc(Oc2cccc(NC(=O)[C@@H](N)CS)c2)c1
18 | < 4.00 |  |  |  | COC(=O)c1ccc(Oc2cccc(NC(=O)[C@@H](N)CS)c2)cc1
